Data reported in US20110224136A1, “INHIBITORS OF DIACYLGLYCEROL ACYLTRANSFERASE” (priority 2008, published 2011).

What follows are molecules tested against T1, human DGAT1 enzyme (Homo sapiens, UniProt O75907) (assay: in vitro DGAT1 inhibition assay (microsomes, [14C]-palmitoyl-CoA, scintillation proximity)). Conditions: human DGAT1 expressed in Sf9 insect cell microsomes; 2 hours at room temperature; read-out: hDGAT IC50.
T1 construct: made in house; host or cells: Sf9 insect cells (microsomes)
T1 sequence (O75907 1-488): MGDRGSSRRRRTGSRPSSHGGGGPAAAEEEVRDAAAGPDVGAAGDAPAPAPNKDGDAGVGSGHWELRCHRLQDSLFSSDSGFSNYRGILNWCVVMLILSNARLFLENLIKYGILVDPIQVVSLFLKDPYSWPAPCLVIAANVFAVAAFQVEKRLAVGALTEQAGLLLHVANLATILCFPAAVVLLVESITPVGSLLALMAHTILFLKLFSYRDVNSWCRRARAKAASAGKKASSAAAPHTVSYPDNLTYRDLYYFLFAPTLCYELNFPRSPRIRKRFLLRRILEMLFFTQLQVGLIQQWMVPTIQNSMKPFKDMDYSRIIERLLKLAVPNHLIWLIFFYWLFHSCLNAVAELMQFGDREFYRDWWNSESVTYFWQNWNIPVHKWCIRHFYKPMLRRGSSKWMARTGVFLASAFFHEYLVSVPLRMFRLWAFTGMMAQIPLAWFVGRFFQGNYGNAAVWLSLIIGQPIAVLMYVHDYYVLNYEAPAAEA
Assay type: biochemical
Protocol: A useful assay to determine the DGAT inhibitory activity of the inventive compounds is described below:
The in vitro assay to identify DGAT1 inhibitors uses human DGAT1 enzyme expressed in Sf9 insect cells prepared as microsomes. The reaction is initiated by the addition of the combined substrates 1,2-dioleoyl-sn-glycerol and [^14C]-palmitoyl-CoA and incubated with test compounds and microsomal membranes for 2 hours at room temperature. The assay is stopped by adding 0.5 mg wheat germ agglutinin beads in assay buffer with 1% Brij-35 and 1% 3-cholamidopropyldimethyl-ammonio-1-propane sulfonate. Plates are sealed with TopSeal and incubated for 18 hours to allow the radioactive triglyceride product to come into proximity with the bead. Plates are read on a TopCount instrument.
Percent inhibition was calculated as the percent of (test compound inhibition minus non-specific binding) relative to (total binding minus non-specific binding). IC50 values were determined by curve fitting the data to a Sigmoidal dose-response in GraphPad Prism utilizing the following equation:
Y=A+(B−A)/(1+10̂((Log IC50−X))),
where A and B are the bottom and top of the curve (highest and lowest inhibition), respectively, and X is the logarithm of concentration.

Compared with `CC1CCCN(c2nc(C(F)(F)F)c(C(=O)Nc3ccc(O[C@@H]4CCN(C(=O)Nc5ccccc5F)C4)nc3)o2)C1` (stereo partly drawn) [Compound 263, N-(6-((R)-1-(2-fluorophenylcarbamoyl)pyrrolidin-3-yloxy)pyridin-3-yl)-2-(3-methylpiperidin-1-yl)-4-(trifluoromethyl)oxazole-5-carboxamide], `CC1CCCN(c2nc(C(F)(F)F)c(C(=O)Nc3ccc(N4CCN(C(=O)Nc5ccccc5F)C[C@@H]4C)nc3)o2)C1` (stereo partly drawn) [Compound 315, N-(6-((S)-4-(2-fluorophenylcarbamoyl)-2-methylpiperazin-1-yl)pyridin-3-yl)-2-(3-methylpiperidin-1-yl)-4-(trifluoromethyl)oxazole-5-carboxamide] is higher in IC50: 0.011 to 0.1 µM for the first, 0.101 to 0.5 µM for the second. The first is the more potent here.

`CN(c1ncc(C(=O)Nc2ccc(N3CCN(C(=O)Nc4ccccc4F)CC3)nc2)c(C(F)(F)F)n1)C1CCCC1` [Compound 220, 2-(cyclopentyl(methyl)amino)-N-(6-(4-(2-fluorophenylcarbamoyl)piperazin-1-yl)pyridin-3-yl)-4-(trifluoromethyl)pyrimidine-5-carboxamide] and `CN(Cc1nc(C(F)(F)F)c(C(=O)Nc2ccc(N3CCN(C(=O)Nc4ccccc4F)CC3)nc2)s1)c1ccccc1` [Compound 247, N-(6-(4-(2-fluorophenylcarbamoyl)piperazin-1-yl)pyridin-3-yl)-2-((methyl(phenyl)amino)methyl)-4-(trifluoromethyl)thiazole-5-carboxamide] fall in the same range of IC50: 0.101 to 0.5 µM for the first, 0.101 to 0.5 µM for the second.

`Cc1cc(N2CCN(C(=O)Nc3ccccc3F)CC2)ncc1NC(=O)c1oc(N2CCCC(C)C2)nc1C(F)(F)F` (centres unmarked) [Compound 321, N-(6-(4-(2-fluorophenylcarbamoyl)piperazin-1-yl)-4-methylpyridin-3-yl)-2-(3-methylpiperidin-1-yl)-4-(trifluoromethyl)oxazole-5-carboxamide] and `O=C(Nc1ccc(N2CCN(C(=O)Nc3ccccc3F)CC2)nc1)c1oc(N2CCN(c3ccccc3F)CC2)nc1C(F)(F)F` [Compound 336, 2-(4-(2-fluorophenyl)piperazin-1-yl)-N-(6-(4-(2-fluorophenylcarbamoyl)-piperazin-1-yl)pyridin-3-yl)-4-(trifluoromethyl)oxazole-5-carboxamide] fall in the same range of IC50: 0.101 to 0.5 µM for the first, 0.101 to 0.5 µM for the second.

`Cc1ccccc1NC(=O)c1ccc(-c2ccc(NC(=O)c3oc(N4CCCC(C)C4)nc3C(F)(F)F)cc2)nc1` (centres unmarked) [Compound 242, 2-(3-methylpiperidin-1-yl)-N-(4-(5-(o-tolylcarbamoyl)pyridin-2-yl)phenyl)-4-(trifluoromethyl)oxazole-5-carboxamide] and `Cc1ccccc1NC(=O)c1ccc(-c2ccc(NC(=O)c3oc(N4CCCC(C)C4)nc3C(F)(F)F)cc2)cn1` (centres unmarked) [Compound 232, 2-(3-methylpiperidin-1-yl)-N-(4-(6-(o-tolylcarbamoyl)pyridin-3-yl)phenyl)-4-(trifluoromethyl)oxazole-5-carboxamide] fall in the same range of IC50: 0.011 to 0.1 µM for the first, 0.011 to 0.1 µM for the second.

`C[C@@H]1CN(C(=O)Nc2ccccc2F)CCN1c1ccc(NC(=O)c2oc(N3CCC(c4ccccc4)CC3)nc2C(F)(F)F)cn1` [Compound 310, (R)—N-(6-(4-(2-fluorophenylcarbamoyl)-2-methylpiperazin-1-yl)pyridin-3-yl)-2-(4-phenylpiperidin-1-yl)-4-(trifluoromethyl)oxazole-5-carboxamide] and `O=C(Nc1ccc(N2CCN(C(=O)Nc3ccccc3F)CC2)nc1)c1oc(N2CCC(O)(c3ccccc3)CC2)nc1C(F)(F)F` [Compound 324, N-(6-(4-(2-fluorophenylcarbamoyl)piperazin-1-yl)pyridin-3-yl)-2-(4-hydroxy-4-phenylpiperidin-1-yl)-4-(trifluoromethyl)oxazole-5-carboxamide] fall in the same range of IC50: 0.101 to 0.5 µM for the first, 0.101 to 0.5 µM for the second.

`CN(CCc1ccccc1)c1nc(C(F)(F)F)c(C(=O)Nc2ccc(N3CCN(C(=O)Nc4ccccc4F)CC3)nc2)o1` [Compound 316, N-(6-(4-(2-fluorophenylcarbamoyl)piperazin-1-yl)pyridin-3-yl)-2-(methyl(phenethyl)amino)-4-(trifluoromethyl)oxazole-5-carboxamide] was tested, and the IC50 was 0.011 to 0.1 µM.
